Assay results reported in patent publication US6379959B1, “Metalocarboxypeptidase inhibitors and derived molecules used as antitumor agents” (Universitat Autonoma de Barcelona, priority 1996, dated 2002).
Positions of bridges follow the written chain, without caps; N, C: chain ends. No end group written: not given here.

Experiments:
[1] = system: human pancreatic adenocarcinoma cell line Capan-1; test: Apoptosis by DAPI labeling and fluorescence microscope; format: cell-based
Description: The studies of possible induction of apoptosis by the PCI were done with the human pancreatic adenocarcinoma cell line Capan-1. The detailed procedure that was employed is as follows:
1. 5×10^5 cells were seed in the chambers/slides and were cultured for 3 o 4 days (until the moment in which, through microscope observation, they presented 75% of confluence). The cells were cultured in DMEM+10% FBS.
2. […] A positive control was added, cysplatinum, at a concentration of 10 μg/mL (a drug which induces apoptosis in various tumor cell lines, Borner, M. M., et al. (1995) Cancer Res., 55: 2122-2128. The incubation period was 24 h.
3. The medium was removed after incubation and the chamber was washed with 2 mL of PBS.
5. Cells were fixed with 2 mL of 2% formaldehyde for 20 min at 4° C.
6. The plates were washed again with 2 mL of PBS for 5 min at room temperature.
7. Cell membranes were permeabilized with 0.25% Triton ×100 in PBS for 5 min at 4° C.
8. Washed with PBS for 5 min at room temperature.
9. The cells were labeled with DAPI at a final concentration of 2 μg/mL for 50 min in darkness at room temperature.
10. The preparation was fitted with the fluoroprep medium and it was examined through the fluorescence microscope.
% apoptosis=(number of apoptotic cells/total number of cells)×100

[2] = system: tumors of human pancreatic adenocarcinoma cell line Capan-1; test: Tests with athymic mice, subcutaneous Capan-1 tumors; format: in vivo, nude mice; set-up: key to SGD class: SGD < 1 expressed as −; >expressed +; <3 expressed as +++; conditions: for Duplication time (days) of the tumor: daily 100 μL into the tumor, 32 days (control 4.32)
Description: With the aim of evaluating the sensitivity to PCI of induced human tumors, studies were carried out with nude mice. Human pancreatic adenocarcinoma cells Capan-1 were inoculated in these mice subcutaneously and once the tumor reached a minimum size of 3×3 mm2, a daily treatment begun, also subcutaneous, with different doses of PCI for 32 days. The following materials were employed:
In order to determine whether the PCI had any effect on tumoral growth, the growth of subcutaneous tumors induced in nude mice, whether treated with PCI or not, was followed over a period of time. The detailed protocol was the following:
1. 10^7 Capan-1 cells were dissolved in 100 μL of DMEM and injected subcutaneously to the mice. 19 mice were inoculated and divided into 4 groups.
Control group: consisting of 5 mice. They were treated with PBS.
Group 1: also consisting of 5 mice. They were treated with 0.11 mg/mL of PCI dissolved in PBS.
Group 2: consisting of 5 mice to which a treatment with a dose of 0.6 mg/mL of PCI was applied.
Group 3: consisting of 4 mice for which, in this case, the dose of PCI was 1.2 mg/mL of PCI.
2. 12 days after the inoculation of the cells, the daily treatment with PBS or PCI by direct injection in the tumor of 100 μL of such solutions was started. At this moment, the tumors were palpable and measured, at least, 2 mm of diameter.
3. During the treatment, the size of the tumor was determined every two days using a Vernier calibrator which made it possible to measure the size of the tumor in all its dimensions. The volume of the tumor was determined by means of the following formula: [formula]
As the volumes of the tumors became known, the relative growth of such tumors was calculated every 7 days using the following formula: [formula]
Once the treatment had finished, the duplication time of the tumor (td) was calculated for each treatment with the following formula: [formula]
where d corresponds to the days of treatment, Vt to the volume of the tumor at the end of the treatment and V0 to the volume at the beginning of the treatment.

[3] = system: Capan-1 cell line; test: Proliferation of Capan-1 cells pretreated with PCI; format: cell-based, human; conditions: pretreatment 50 μg/mL of PCI, 28-34 days; treatment 5-18 days
Description: In the case of the Capan-1 cell line, two different tests and which are described as follows were carried out:
1. 5,000 cells were seed in 2 wells of a plate of 12 wells. One of the wells was grown with medium (non-pretreated cells), and the other with medium with 50 μg/mL of PCI (pretreated cells). The cells were kept in such conditions for the period of time that is indicated in the results section as time of pretreatment.
2. Twice a week, the medium of the wells was replaced by fresh medium with or without PCI, and each time that in any of the wells confluence was reached, the cells were trypsinized and 1/10 of them was placed again in the original well, the other cells being discarded or frozen.
3. Once the desired time of pretreatment elapsed, the cells were trypsinized and counted, being employed to start proliferation tests such as those described in Section 4.B.2.1. The number of cells that was placed per well in the proliferation plate (of 96 wells) was 2,000, 7 replicas being put for each treatment. The cells underwent treatment with or without various PCI concentrations.
4. Once the treatment time elapsed, the number of cells per well was estimated as previously described in Section 4.B.2.a.

[4] = system: human pancreatic adenocarcinoma cell line Capan-1; test: Growth curve of the cell line Capan-1 in presence or absence of PCI; format: cell-based; conditions: for Duplication time: DMEM + 10% FBS (control 85)
Description: The growth curve of the human pancreatic adenocarcinoma cell line Capan-1 was determined by culturing the cells in medium DMEM supplemented with 10% of FBS (see Section 4 ..B.1.). Plates with wells were used, each with a surface of 10 cm^2 (Nunc, Denmark). The number of cells initially placed per well was 1×10^5, and changes of medium were made every four days, adding new PCI in the medium in the case of the cells treated with PCI.
Three growth curves were determined (FIG. 10) in absence of PCI and in presence of PCI, in concentrations of 1 μg/mL and of 10 μg/mL. Initially, 45 replica-wells were placed for each treatment. After 15 days, three of the replica-wells of each treatment were taken and their number of cells counted by means of trypsinization and recount employing hemocytometer (for a description of the technique, see Section 4.B.1.). The results of the tests are shown in Table 13, which presents the duplication times calculated from the data.

[5] = system: human pancreatic adenocarcinoma cell line Capan-1; conditions: 16 days
Description: Two kinds of tests were carried out; the first one is the treatment of cells of the human pancreatic adenocarcinoma cell line Capan-1 with wtPCI and tail added to the culture medium in absence of serum.
In a culture plate with 96 wells, 5,000 cells were seed per well, in 24 of them. The cells were placed in full medium (DMEM+10%FBS).
In 6 wells (control): 200 μL of serum-free medium (DMEM-FBS) and free of tail were added.
200 μL of serum-free medium with 50 μg/mL of native PCI were added.
In 6 wells, 200 μL of serum-free medium with 0.128 μg of tail/mL were added.
In 6 wells, serum-free medium with 6.4 μg of tail/mL was added.
The medium contained in the wells was changed every 3-4 days. The old medium was sucked out using a Pasteur pipette.
After 16 days, the cell growth per well was evaluated according to the method detailed in the protocol of Section 4.B.2.a.

[6] = Dose 0.55 (mg(kg/day), s.c., days 0-32)
[7] = Dose 3 (mg(kg/day), s.c., days 0-32)
[8] = Dose 6 (mg(kg/day), s.c., days 0-32)

Substance: PCI: potato carboxypeptidase inhibitor, isoform IIa, obtained by recombinant DNA techniques in E. coli (SEQ ID NO.2) (EQHADPICNKPCKTHDDCSGAWFCQACWNSARTCGPYVG; disulfide 12-27, 18-34, 8-24)
- % Apoptosis ([1]; 0,1 mg/mL PCI, 24 h (negative control 0.08)): 0.11%
- % Apoptosis ([1]; 10 mg/mL PCI, 24 h): 0.095%
- % Apoptosis ([1]; 50 mg/mL PCI, 24 h): 0.41%
- % Apoptosis ([1]; 200 mg/mL PCI, 24 h): 0.038%
- index of apoptosis relative to the control ([1]; PCI 50 μg/mL, 24 h): 5 times
- Duplication time (days) of the tumor ([2]; 0.11 mg/mL PCI): 9.06 days
- Duplication time (days) of the tumor ([2]; 0.6 mg/mL PCI): 19.49 days
- Duplication time (days) of the tumor ([2]; 1.2 mg/mL PCI): 5.78 days
- Optimal T/C % [2, 6]: 39.79%
- SGD (Td treated- Td control/Td control) [2, 6]: 1.09
- SGD class [2, 6]: +
- Optimal T/C % [2, 7]: 21.36%
- SGD (Td treated- Td control/Td control) [2, 7]: 3.51
- SGD class [2, 7]: +++ (<3 expressed as +++)
- Optimal T/C % [2, 8]: 69.4%
- SGD (Td treated- Td control/Td control) [2, 8]: 0.34
- SGD class [2, 8]: − (SGD < 1 expressed as −)
- days of treatment until tumors start bleeding in the process of injection ([2]; animals treated with PCI (control three days)): 8 days
- activity in the reduction of the growth of the tumors ([2]; dose of 0.11 mg/mL): moderate activity (T/C < 50% moderate activity)
- duplication time of the tumor relative to the control tumors ([2]; dose of 0.11 mg/mL of PCI): twice as high
- activity in the reduction of the growth of the tumors ([2]; dose of PCI of 0.6 mg/mL): significant activity (T/C < 25%, significant activity)
- duplication time of the tumor relative to the control group ([2]; doses of 0.6 mg/mL): 4.5 times
- final number of cells, pretreated cells cultivated afterwards in absence of PCI vs non-pretreated cells [3]: approximately half
- density reached by the stationary stage compared with the control cells ([4]; 10 μg/mL of PCI): a half
- Duplication time ([4]; Treated with 1 mg/mL): 90 h
- Duplication time ([4]; Treated with 10 mg/mL): 130 h
- Growth (Percentage in relation to the average of the controls) ([5]; 50 mg/mL wtPCI, serum-free medium): 107.6%
- growth of Capan-1 cells ([5]; wtPCI in serum-free medium): not altered
